For assay [1], the target named is HDAC3/NCOR1 complex (Homo sapiens, UniProt O15379). In words: HDAC3 enzyme assay (fluorescent activity kit, HDAC3/NCOR1 complex).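 As to all read-outs here: in vitro enzyme activity of HDAC3 complexed with NCOR1, fluorescence read at 360 nm excitation and 460 nm emission, inhibition relative to uninhibited control wells.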 Conditions: for inhibition at 10 µM: library screen, o-aminoanilides T1–T336 without purification, values read from Figure 7; for IC50 / IC50 HDAC3: class I, means of at least three experiments. It counts as biochemical.
Chain of HDAC3/NCOR1 complex (O15379 whole entry): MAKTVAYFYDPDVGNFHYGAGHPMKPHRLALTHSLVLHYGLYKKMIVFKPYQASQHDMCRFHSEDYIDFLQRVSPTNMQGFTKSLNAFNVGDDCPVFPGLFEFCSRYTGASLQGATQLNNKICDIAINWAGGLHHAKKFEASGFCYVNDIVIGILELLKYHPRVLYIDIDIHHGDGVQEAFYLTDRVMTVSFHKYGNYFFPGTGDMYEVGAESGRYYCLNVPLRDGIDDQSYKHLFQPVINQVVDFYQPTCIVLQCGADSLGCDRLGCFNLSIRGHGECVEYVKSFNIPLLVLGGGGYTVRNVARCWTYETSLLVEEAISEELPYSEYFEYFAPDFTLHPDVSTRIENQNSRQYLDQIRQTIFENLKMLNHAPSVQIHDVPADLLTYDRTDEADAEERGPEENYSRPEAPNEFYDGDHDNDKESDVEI
Chain of HDAC3/NCOR1 complex (O75376 395-489 partner limits assumed): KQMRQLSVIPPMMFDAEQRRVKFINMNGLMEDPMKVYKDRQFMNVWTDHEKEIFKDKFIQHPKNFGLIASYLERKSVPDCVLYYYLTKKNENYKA
Description: Because HDAC3 forms a complex with NCOR1 in cells [45], we used HDAC3/NCOR1 complex in in vitro HDAC3 assay. […] Therefore, as a primary in vitro screening for HDAC3 selectivity, we used total HDACs from HeLa nuclear extracts, in which the combined deacetylase activity of HDAC1 and HDAC2 is much higher than the activity of HDAC3 [46]. Initially, o-aminoanilides T1–T336 (10 µM) and hydroxamates T337–T504 (1 µM) were tested for inhibitory activity against HDAC3. […] The fluorescence of the wells was measured on a fluorometric reader with excitation set at 360 nm and emission detection set at 460 nm, and the values of % inhibition were calculated from the fluorescence readings of inhibited wells relative to those of control wells. […] IC50 values were determined by regression analysis of the concentration/inhibition data.
Assay [2] deals with total HDACs from HeLa nuclear extracts. Kind of assay: Total HDACs enzyme assay (HeLa nuclear extracts). It counts as biochemical. Conditions: pure resynthesized compounds, means of at least three experiments.
In assay [3] the target is T1, HDAC1 (Homo sapiens, UniProt Q13547).
T1 construct: purchased SignalChem Pharmaceuticals Inc. H83-30G
T1 sequence (Q13547 whole entry): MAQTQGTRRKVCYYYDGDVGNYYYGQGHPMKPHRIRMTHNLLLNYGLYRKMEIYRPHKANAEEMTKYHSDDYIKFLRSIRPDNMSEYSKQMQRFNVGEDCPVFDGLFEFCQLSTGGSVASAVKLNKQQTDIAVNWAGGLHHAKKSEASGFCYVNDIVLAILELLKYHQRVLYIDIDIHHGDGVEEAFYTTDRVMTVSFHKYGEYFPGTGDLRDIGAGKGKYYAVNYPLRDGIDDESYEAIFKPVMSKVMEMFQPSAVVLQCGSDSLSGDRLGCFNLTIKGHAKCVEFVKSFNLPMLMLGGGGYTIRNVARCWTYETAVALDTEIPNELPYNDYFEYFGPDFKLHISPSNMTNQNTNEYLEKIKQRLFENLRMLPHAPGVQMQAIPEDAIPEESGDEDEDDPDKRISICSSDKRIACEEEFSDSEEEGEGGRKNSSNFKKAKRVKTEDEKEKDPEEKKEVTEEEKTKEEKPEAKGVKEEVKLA
Kind of assay: HDAC1 enzyme assay. It counts as biochemical. Particulars: class I; means of at least three experiments. On the procedure: (§1) The fluorescence of the wells was measured on a fluorometric reader with excitation set at 360 nm and emission detection set at 460 nm, and the values of % inhibition were calculated from the fluorescence readings of inhibited wells relative to those of control wells. […] IC50 values were determined by regression analysis of the concentration/inhibition data.

Assay [4] concerns the target T2, HDAC8 (Homo sapiens, UniProt Q9BY41).
T2 construct: purchased Cyclex Company Limited CY-1158
T2 sequence (Q9BY41 1-377): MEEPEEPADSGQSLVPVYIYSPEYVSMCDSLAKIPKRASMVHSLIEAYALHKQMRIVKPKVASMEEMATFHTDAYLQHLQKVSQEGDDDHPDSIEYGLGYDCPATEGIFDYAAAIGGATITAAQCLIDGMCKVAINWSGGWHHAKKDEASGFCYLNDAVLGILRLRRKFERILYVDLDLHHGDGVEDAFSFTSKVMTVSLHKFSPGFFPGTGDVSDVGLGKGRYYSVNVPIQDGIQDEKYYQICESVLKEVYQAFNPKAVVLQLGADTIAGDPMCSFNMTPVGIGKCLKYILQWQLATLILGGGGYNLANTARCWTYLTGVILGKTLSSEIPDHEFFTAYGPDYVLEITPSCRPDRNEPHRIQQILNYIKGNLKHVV
Kind of assay: HDAC8 enzyme assay. It counts as biochemical. Particulars: class I; means of at least three experiments. On the procedure: as §1

Assay [5] concerns the target T3, HDAC4 (Homo sapiens, UniProt P56524).
T3 construct: purchased BPS Bioscience Incorporated
Kind of assay: HDAC4 enzyme assay. The format is biochemical. Particulars: class IIa; means of at least three experiments.

Assay [6] concerns the target T4, HDAC6 (Homo sapiens, UniProt Q9UBN7).
T4 construct: purchased BIOMOL Research Laboratories SE-508
T4 sequence (Q9UBN7 1-1215): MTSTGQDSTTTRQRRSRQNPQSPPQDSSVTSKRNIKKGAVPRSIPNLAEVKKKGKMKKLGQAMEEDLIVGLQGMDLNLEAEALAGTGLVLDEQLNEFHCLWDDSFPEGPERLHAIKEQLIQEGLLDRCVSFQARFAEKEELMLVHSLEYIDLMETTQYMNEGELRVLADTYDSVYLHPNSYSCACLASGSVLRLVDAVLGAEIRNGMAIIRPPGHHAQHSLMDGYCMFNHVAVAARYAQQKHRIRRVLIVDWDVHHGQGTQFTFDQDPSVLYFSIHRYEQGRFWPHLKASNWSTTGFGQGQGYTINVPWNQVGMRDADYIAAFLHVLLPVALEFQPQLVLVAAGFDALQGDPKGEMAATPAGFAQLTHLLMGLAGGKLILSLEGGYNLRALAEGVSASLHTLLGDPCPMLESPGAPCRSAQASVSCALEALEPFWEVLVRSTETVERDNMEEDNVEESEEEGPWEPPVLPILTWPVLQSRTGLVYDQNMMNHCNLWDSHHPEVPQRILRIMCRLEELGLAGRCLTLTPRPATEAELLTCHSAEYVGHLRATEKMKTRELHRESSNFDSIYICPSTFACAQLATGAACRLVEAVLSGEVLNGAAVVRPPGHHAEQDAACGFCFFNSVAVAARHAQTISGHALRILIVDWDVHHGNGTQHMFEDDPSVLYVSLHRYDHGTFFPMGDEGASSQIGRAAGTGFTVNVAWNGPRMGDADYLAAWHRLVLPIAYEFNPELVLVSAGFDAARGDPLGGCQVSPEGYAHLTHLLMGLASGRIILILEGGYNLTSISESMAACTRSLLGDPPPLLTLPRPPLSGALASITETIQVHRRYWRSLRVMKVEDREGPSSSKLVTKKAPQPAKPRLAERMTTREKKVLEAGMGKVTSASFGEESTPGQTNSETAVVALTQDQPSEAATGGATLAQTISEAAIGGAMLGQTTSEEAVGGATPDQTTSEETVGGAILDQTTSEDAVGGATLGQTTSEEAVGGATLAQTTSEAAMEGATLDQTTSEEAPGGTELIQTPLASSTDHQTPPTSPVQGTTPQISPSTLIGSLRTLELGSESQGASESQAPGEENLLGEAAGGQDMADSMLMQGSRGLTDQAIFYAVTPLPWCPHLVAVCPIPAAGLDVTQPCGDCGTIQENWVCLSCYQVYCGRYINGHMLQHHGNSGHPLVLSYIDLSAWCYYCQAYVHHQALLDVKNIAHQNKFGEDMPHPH
Kind of assay: HDAC6 enzyme assay. The format is biochemical. Conditions: class IIb; means of at least three experiments.

For assay [7], the system named is colon cancer HCT116 cells. Kind of assay: Cell growth inhibition assay (MTT), HCT116. Particulars: Homo sapiens, read-out: GI50 HCT116 (colon cancer). It counts as cell-based.
Description: (§2) The solubilized dye was quantified by colorimetric reading at 570 nm. The absorbance values of control wells (C) and test wells (T) were measured. The absorbance of the test wells (T 0) was also measured at time 0 (addition of compounds). Using these measurements, cell growth inhibition (percentage of growth) by a test inhibitor at each concentration used was calculated as: % growth = 100×[(T – T 0)/(C – T 0)], when T>T 0 and % growth = 100× [(T – T 0)/T], when T<T 0.
Assay [8] relates to prostate cancer PC3 cells. Kind of assay: Cell growth inhibition assay (MTT), PC3. It counts as cell-based. Conditions: Homo sapiens, read-out: GI50 PC3 (prostate cancer).
Description: as §2
Assay [9] deals with OM10.1 cells latently infected with HIV-1. In words: Viral p24 antigen assay in latently HIV-1-infected OM10.1 cells. The format is cell-based. The method, then: Figure 13 Induction of viral replication from OM10.1 cells latently infected with HIV-1. […] HIV-1 p24 antigen in the cell culture supernatant was measured using ELISA. Experiments were performed in triplicate, and the means ±S.D. are indicated. **P<0.01, *P<0.05; Student’s t test results indicated differences between DMSO and inhibitors.
The p24 antigen level in the cell culture supernatant was measured by p24 antigen capture ELISA assay using a commercial kit (RETRO-TEK HIV-1 p24 Antigen ELISA kit; Zepto Metrix, Buffalo, NY, USA) according to the method reported in ref [54].

For assay [10], the system named is acetylated NF-κB in HCT116 cells. Kind of assay: Western blot of acetylated NF-κB in HCT116 cells. It counts as cell-based, human. Particulars: 8 h treatment. (In western blotting, separated proteins are transferred to a membrane and probed.)
Description: (§3) Since HDAC3 is known to catalyze the deacetylation of NF-κB [13]–[14], we initially examined the effects of the inhibitors on the acetylation levels of NF-κB in HCT116 cells.
(§4) Protein concentrations of the lysates were determined using a Bradford protein assay kit (Bio-Rad Laboratories); equivalent amounts of proteins from each lysate were resolved in AnykD SDS-polyacrylamide gels and then transferred onto nitrocellulose membranes (Bio-Rad Laboratories). After having been blocked for 30 min with Tris-buffered saline (TBS) containing 3% skimmed milk, the transblotted membranes were incubated overnight at 4°C with acetyl NF-κB antibody (CST) (1∶1000 dilution), NF-κB antibody (CST) (1∶1000 dilution), acetyl α-tubulin antibody (Sigma) (1∶2000 dilution), α-tubulin antibody (Sigma) (1∶2000 dilution), acetyl p53 antibody (CST) (1∶500 dilution) or p53 antibody (CALBIOCHEM) (1∶500 dilution) in TBS containing 3% skimmed milk. […] The immunoblots were visualized by enhanced chemiluminescence.
The test system of assay [11] is acetylated p53 in HCT116 cells. In words: Western blot of acetylated p53 in HCT116 cells. It counts as cell-based, human. Conditions: 8 h treatment.
Description: as §3, §4
The test system of assay [12] is acetylated α-tubulin in HCT116 cells. Kind of assay: Western blot of acetylated α-tubulin in HCT116 cells. It counts as cell-based, human. Particulars: 8 h treatment.
Description: as §3, §4
[13] abbreviates: 1 µM, means of two experiments, read-out: HDAC3 inhibition (%).
Setting [14] is: 3 µM, means of two experiments, read-out: HDAC3 inhibition (%).
The mark [15] stands for this setting: HCT-116, 48 h exposure, MTT, means of at least three experiments.
The mark [16] stands for this setting: PC-3, 48 h exposure, MTT, means of at least three experiments.
The mark [17] stands for this setting: 48 h, 0.1, 1 and 10 µM, effect at 1 µM and/or 10 µM.

SMILES strings stand for the structures. Like-named read-outs stand apart in the source and are kept apart here.

T3 sequence (P56524 627-1084 limits assumed): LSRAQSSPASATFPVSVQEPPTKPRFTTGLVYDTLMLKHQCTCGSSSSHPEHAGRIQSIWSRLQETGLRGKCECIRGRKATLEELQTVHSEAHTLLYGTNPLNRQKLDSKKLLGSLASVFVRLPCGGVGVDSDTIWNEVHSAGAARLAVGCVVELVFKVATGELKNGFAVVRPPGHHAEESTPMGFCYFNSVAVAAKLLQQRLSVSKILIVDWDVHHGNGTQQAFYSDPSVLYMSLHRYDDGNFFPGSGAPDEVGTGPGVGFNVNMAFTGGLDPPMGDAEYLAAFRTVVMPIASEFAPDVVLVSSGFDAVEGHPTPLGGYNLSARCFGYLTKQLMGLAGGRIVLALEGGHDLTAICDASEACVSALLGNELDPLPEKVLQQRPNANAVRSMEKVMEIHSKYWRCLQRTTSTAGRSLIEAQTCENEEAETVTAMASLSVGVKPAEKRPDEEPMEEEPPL

Regarding `Cc1ccc(C(=O)NCC(=O)NCCC(=O)Nc2ccccc2N)cc1` [compound 1, reference compound], in assay [1] (setting [13]), the inhibition at 1 µM came out at 9%. In addition, the inhibition at 3 µM in assay [1] (setting [14]) came to 29%. At 10 µM the inhibition in [1] was 47%. For the same compound, the IC50 is 19 µM in assay [1]; above 100 µM in assay [2]; above 100 µM in assay [3]; above 100 µM in [4]; above 100 µM in assay [5]; above 100 µM in [6]. Also, the GI50 in assay [7] (setting [15]) is 81 µM; in assay [8] (setting [16]), above 100 µM. Also, the “HIV-1 expression (p24 antigen in supernatant)” value (“HIV-1 expression” for short) in [9] (setting [17]) is given as “did not show any activity”.
For the compound `COc1ccccc1CCn1cc(-c2ccc(C(=O)Nc3ccccc3N)cc2)nn1` [Compound T266], the “HDAC3 inhibition (%)” value in assay [1] (1 µM, means of two experiments) came out at 73%; in [1] (3 µM, means of two experiments) it was 91%.
For `Nc1ccccc1NC(=O)c1cccc(-c2cn(CC(=O)c3ccccc3)nn2)c1` [Compound T199] the same measures were 59% and 83%.
For `Nc1ccccc1NC(=O)c1ccc(-c2cn(CCc3cccc(F)c3)nn2)cc1` [Compound T261] the same measures were 75% and 89%.
On to `Nc1ccccc1NC(=O)c1ccc(-c2cn(CCC3CCCCC3)nn2)cc1` [Compound T254], for which the “HDAC3 inhibition (%)” value was found to be 55% in assay [1] (1 µM, means of two experiments) and 80% in assay [1] (3 µM, means of two experiments).
With `Nc1ccccc1NC(=O)c1ccc(-c2cn(CCc3cccc([N+](=O)[O-])c3)nn2)s1` [Compound T326, 5-{1-[2-(3-Nitrophenyl)ethyl]-1H-[1], [2], [3]triazol-4-yl}thiophene-2-carboxylic acid (2-aminophenyl)amide], in [1] (setting [13]), the inhibition at 1 µM was found to be 86%. Besides, in assay [1] (setting [14]), the inhibition at 3 µM was 95%. In [1], this compound returned an inhibition at 10 µM of 98%. In addition, the IC50 is 0.26 µM in assay [1]; above 100 µM in assay [2]; above 100 µM in assay [3]; above 100 µM in assay [4]; above 100 µM in assay [5]; above 100 µM in [6]. In assay [1], the “IC50 HDAC3” value was “submicromolar”. Also, the NF-κB acetylation result in assay [10] is listed as “dose-dependent increase of NF-κB acetylation”. In [11], the “levels of acetylated p53” value is “not elevated”. Besides, in assay [12], the “acetylation of α-tubulin” value is recorded as “did not enhance the acetylation of α-tubulin”. The GI50 in assay [7] (setting [15]) stood at 0.94 µM; in assay [8] (setting [16]) it was 1 µM. In addition, the “HIV-1 expression” value is on record as “less active at 10 µM due to cytotoxicity” in assay [9] (48 h, 10 µM) and “significantly stimulated HIV-1 expression” in [9] (setting [17]).
For `Nc1ccccc1NC(=O)c1ccc(-c2cn(CCc3ccsc3)nn2)cc1` [Compound T247, N-(2-Aminophenyl)-4-[1-(2-thiophen-3-ylethyl)-1H-[1], [2], [3]triazol-4-yl]benzamide], the inhibition at 1 µM in assay [1] (setting [13]) came to 89%. In assay [1] (setting [14]), the inhibition at 3 µM worked out at 95%. Further, in [1], the inhibition at 10 µM turned out to be 93%. Further, the “IC50 HDAC3” value in assay [1] is “submicromolar”. Also, the IC50 in assay [2] is above 100 µM; in assay [3], 19 µM. In addition, the NF-κB acetylation entry in assay [10] is listed as “dose-dependent increase of NF-κB acetylation”. In assay [11], the “levels of acetylated p53” value is given as “not elevated”. Further, the “acetylation of α-tubulin” value in assay [12] is “did not enhance the acetylation of α-tubulin”. Further, the 50% growth inhibitory concentration (GI50) was 1.9 µM in assay [7] (setting [15]) and 1.4 µM in [8] (setting [16]). Besides, the “HIV-1 expression” value in [9] (setting [17]) is “significantly stimulated HIV-1 expression”.
As to `Nc1ccccc1NC(=O)c1ccc(-c2cn(CCc3ccc(F)cc3)nn2)s1` [Compound T318], the “HDAC3 inhibition (%)” value came to 77% in [1] (1 µM, means of two experiments) and 91% in assay [1] (3 µM, means of two experiments).
On to `Nc1ccccc1NC(=O)CCc1cn(Cc2cccc(-c3ccccc3)c2)nn1` [Compound T52], for which the “HDAC3 inhibition (%)” value is 55% in assay [1] (1 µM, means of two experiments) and 81% in assay [1] (3 µM, means of two experiments).
For `Nc1ccccc1NC(=O)c1ccc(-c2cn(Cc3cccc4ccccc34)nn2)cc1` [Compound T251], the “HDAC3 inhibition (%)” value in [1] (1 µM, means of two experiments) was found to be 75%; in assay [1] (3 µM, means of two experiments) it was 92%.
Consider `O=C(CCCCCCC(=O)Nc1ccccc1)NO` [vorinostat (3), vorinostat, reference compound], for which the inhibition at 1 µM turned out to be 83% in [1] (read-out: HDAC3 inhibition (%)) and 98% in assay [1] (read-out: HDAC3 inhibition (%) at 1 µM). The inhibition at 3 µM in assay [1] (read-out: HDAC3 inhibition (%)) was 93%. In addition, the NF-κB acetylation entry in assay [10] was “induced non-selective acetylation of NF-κB and p53”. Besides, the “levels of acetylated p53” value in assay [11] is “induced non-selective acetylation of NF-κB and p53”. Also, the GI50 in [7] (HCT-116, 48 h) was found to be 1.3 µM; in assay [8] (PC-3, 48 h), 1.6 µM. In assay [9] (setting [17]), the “HIV-1 expression” value is “significantly stimulated HIV-1 expression”.
As to `COc1cccc(CCn2cc(-c3ccc(C(=O)Nc4ccccc4N)cc3)nn2)c1` [Compound T267], the “HDAC3 inhibition (%)” value in [1] (1 µM, means of two experiments) is 80%; in [1] (3 µM, means of two experiments), 92%.
The like results for `Cc1ccccc1CCn1cc(-c2ccc(C(=O)Nc3ccccc3N)cc2)nn1` [Compound T263] were, in that order, 74% and 91%.

Broadly, the inhibition is the share of the control response that was lost under treatment. The IC50 is the concentration that inhibits the measured activity by half. Read a low IC50 as greater potency in that assay. One may read the GI50 as the concentration giving 50% growth inhibition.
